Legend:
[1] = test system: TABX2S cells (over-expressing Bcl-xL); test: in vitro
Description: (§1) Briefly, a DNA fragment encoding the full-length mouse Bcl-xL cDNA was isolated from the plasmid pBS-BCL-xL (Tzung et al., Am. J. Path. 150:1985-1995 (1997), incorporated herein by reference in its entirety) by digestion with the restriction endonuclease EcoRI. This EcoRI fragment was cloned into the EcoRI site of the mammalian expression vector pSFFV (Fuhlbrigge et al., Proc. Nat. Acad. Sci. USA 85:5649-5653 (1988)) in both sense and antisense orientations, to form expression plasmids pSFFV-Bc/-xL-WT(sense) or pSFFV-Bc/-xL(antisense), respectively. The tumorigenic murine hepatocyte cell line TAMH was transfected by lipofection (Lipofectamine, Life Technologies, Rockville, Md., according to the manufacturer's recommendations) with the plasmids pSFFV-neo (the control), pSFFV-Bc/-xL-WT(sense) or pSFFV-Bc/-xL(antisense). Characterization of and culture conditions for the cell lines have been previously published (Wu et al., Proc. Nat. Acad. Sci. USA 91:674-78 (1994); Wu et al., Cancer Res. 54:5964-5973 (1994)). Transfectants were selected for the acquisition of neomycin resistance by growing cells in the presence of 750 μg/ml of G418. Bulk transfectants were cloned by limiting dilution and individual clones were screened by immunoblot analysis to determine the level of Bcl-xL, protein expression as described below.
(§2) Selected transfectants were then tested for whole cell sensitivity to several apoptotic agents. Transfected cells were cultured to reach approximately 80% confluency prior to plating an equal number of cells from selected clones on 12-well tissue culture plates. The transplanted cells were treated with the following apoptotic agents: 5 μM doxorubicin for 48 hours; 5 μM cisplatin for 48 hours; or with 200 U/ml tumor necrosis factor (TNF) plus 1 μg/ml actinomycin D for 18 hours. Cell viability was determined by trypan blue dye exclusion. The percentage of viable cells was calculated by the number of viable cells (treated with a particular apoptogenic agent) divided by the number in the control group (untreated).
TABX2S cells and TABX1A cells were also examined for the effects of various mitochondrial inhibitors. […] Azide was diluted from an aqueous stock solution.

[2] = test system: TABX1A cells (Bcl-xL antisense); test: Cell viability by trypan blue dye exclusion; conditions: 2 μg/ml, without fructose, six hours
Description: as §1
as §2, with “(untreated). […]” for “(untreated).”

[3] = test system: control mitochondria; test: Rhodamine 123 retention assay, isolated mitochondria; assay type: biochemical, murine; conditions: five minutes after addition
Experimental: (§3) Rh-123 is a cationic lipid-soluble fluorescent dye that accumulates in mitochondria in proportion to the mitochondrial membrane potential. Mitochondria were isolated from TABX2S cells (over-expressing Bcl-xL) and from control cells, prepared as described in Example 2. The isolated mitochondria were loaded with Rh-123 by incubation with 10 μM Rh-123 for 30 minutes, washing and resuspention in buffer. […] Less than 40% of Rh-123 was retained in antimycin A-treated TABX2S mitochondria, compared with greater than 80% retained in control mitochondria.

[4] = test system: mitochondria from TABX2S cells; test: as above; assay type: biochemical, murine; conditions: five minutes after addition
Experimental: as §3

[5] = target: T1, Bcl-xLΔC20 (Homo sapiens, UniProt Q07817); test: Calcein leakage from large unilamellar vesicles (pore formation); assay type: biochemical; conditions: 12 μM
T1 construct: poly-His (N); made in house
T1 sequence (Q07817 1-213 limits assumed, stated change not applied): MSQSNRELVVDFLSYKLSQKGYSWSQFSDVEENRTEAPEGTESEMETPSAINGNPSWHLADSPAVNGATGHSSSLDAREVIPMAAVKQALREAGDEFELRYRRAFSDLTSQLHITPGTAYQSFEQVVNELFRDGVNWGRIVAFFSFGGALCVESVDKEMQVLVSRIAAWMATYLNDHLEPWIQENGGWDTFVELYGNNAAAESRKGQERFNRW
Experimental: The Bcl-xL protein has reversible pore-forming activity. Recombinant human Bcl-xL lacking the C-terminal 20-residue membrane anchor sequence, Bcl-xLΔC20, forms pores in large unilamellar vesicles. A reporter, calcein, can leak out of the vesicles through these pores.
Large unilamellar vesicles composed of 60% dioleoylphosphatidylcholine and 40% oleoylphosphatidylglycerol were prepared by the extrusion method of Mayer et al. (Biochim. Biophys. Acta 858:161-168 (1986)). Briefly, a dry film of lipid was resuspended in an aqueous solution containing 40 mM calcein (Molecular Probes, Eugene, Oreg.), 25 mM KCl and 10 mM HEPES (pH 7.0). […] The size of the vesicle suspension was measured by a Coulter N4 Plus-Sizer to confirm that the mean diameter of the vesicle sample was close to the expected size (100 nm). The osmolalities of all solutions were measured in a cryoscopic osmometer (Wescor Inc., Logan, Utah) and adjusted to 0.21 Osmol/kg by the addition of sodium chloride, as necessary. Lipid concentration was measured as described previously (Stewart, Anal. Biochem. 104:10-14 (1989)).
Calcein leakage was determined by adding 2-4 μg of purified Bcl-xLΔC20 (5 μg/ml, 161 nM) to a solution of 100 mM NaCl, 10 mM HEPES (pH 5.0) containing the large unilamellar vesicles (50 μM final lipid concentration) described above. […]

[6] = test system: TAMH hepatocyte and RPMI-8226 myeloma cell lines; test: O2 consumption, Clark electrode; assay type: cell-based; conditions: 10 μM
Experimental: Respiratory rates of both cell lines were maintained through repeated additions of 10 μM 2-OMeAA, to a final concentration of 90 μM (FIG. 7A). […] The metabolic response to hypoxia is dominated by a shift to glycolytic metabolism characterized by increased rates of glucose uptake and reductive conversion of pyruvate to lactic acid. Real-time glucose consumption and lactate production by TAMH cells grown on microcarrier beads were monitored using a microsequential injection-lab on valve (μSI-LOV) system (Schulz et al., Analyst 127:1293-1298 (2002)). […] Since 2-OMeAA has no effect on cellular respiration at these concentrations, 2-OMeAA induces aerobic glycolysis in TAMH cells. The glycolytic response to 2-OMeAA was proportional to cellular Bcl-xL protein expression (FIG. 7C).

[7] = test system: TAMH cells; test: Microsequential injection-lab on valve glucose consumption and lactate production; assay type: cell-based, murine; conditions: 10-100 nM
Experimental: Detailed methods have been previously published (Schulz et al., Analyst 127:1583-1588 (2002)). Cytopore™ beads (Amersham Pharmacia Biotech, Upsala, Sweden) were hydrated in Hanks balanced salt solution (Gibco-BRL, Grand Island, N.Y.) and autoclaved according to manufacturers instructions. Beads were incubated in serum-containing media overnight. TAMH cells were transferred to the bead slurry at an approximate ratio of 50 cells per bead and grown in spinner culture flasks with gentle stirring. Beads were collected for metabolic studies at cell densities of approximately 100-500 cells/bead. For experiments, cell medium was replaced with HBSS. […]
Glucose and lactate concentrations were assayed as substrates in first-order NAD-linked enzymatic reactions, with NADH generation monitored by absorbance at 340 nm. […]
An assay cycle is initiated by packing a column of cells attached to beads in the microbioreactor, which is upstream of the LOV flow cell. […] After the stop flow period, 3 μL of the interstitial fluid from the cell column is injected through to the LOV flow cell previously loaded with glucose or lactate reagent and 340 nm absorbance recorded for 30 s after mixing. Calibration standards were used to convert endpoint absorbance to concentrations. […]

antimycin A
time until cell death readily apparent [1]: ≤ 2 h
survival [2]: 87%
Rh-123 retained [3]: greater than 80%
Rh-123 retained [4]: Less than 40%
Bcl-xL pore-forming activity [5]: completely blocked
respiration dampened by [6]: > 90%
glucose uptake and lactate production [7]: increased glucose uptake and lactate production
